Source: patent publication EP0335292A2, “2,6-Methano-1,3-benzodiazocines, a process for their preparation and their use as medicaments” (HOECHST-ROUSSEL PHARMACEUTICALS INCORPORATED, priority 1988, dated 1989)
Counter-ions that a name gives are not always drawn.

The compounds below were run on mice (assay: modified phenyl-p-quinone writhing assay in mice (analgesia)). Settings: Mus musculus, sc; read-out: Analgesic Activity (Inhibition of Writhing ED₅₀mg/kg,s.c.).
Type: in vivo
Protocol: The 2,6-methano-1,3-benzodiazocines of this invention are useful as analgetics due to their ability to alleviate pain in mammals. The procedure employed to determine analgetic activity is a modification of the phenyl-p-quinone writhing assay in mice, a standard assay for analgesia [Proc. Soc. Exptl. Bio. Med., 95 729(1957)]. Pursuant to the modified procedure, phenyl-p-benzoquinone (Eastman, 12.5 mg) is dissolved in 5 ml of 95% ethanol and the solution is diluted to a total volume of 100 ml with distilled water. The solution is administered to the subject mice intraperitoneally at a dose of 10 ml per kg of body weight. A characteristic "writhe", an inward rotation of one or more feet with twisting and turning of the trunk, drawing in of the abdominal wall, lordosis and arching of the back, is produced.
A total of 28 male mice (Charles River, CD-1), weighing 18 to 30 grams, are employed for a time response. The subject animals receive food and water ad libitum. Test compounds are dissolved in distilled water, or suspended in distilled water containing one drop of a suitable surfactant, such as Tween-80.
Four groups of five animals (20 animals) are given the test compound subcutaneously or orally (p.o.) at 15, 30, 45, and 60 minutes prior to administration of the phenyl-p-quinone. A control group (2 animals per group) receive an equal volume of the vehicle. After the administration of the phenyl-p-quinone, the mice are placed separately in one liter beakers, and after five minutes, are observed for ten minutes. The number of writhes for each animal is recorded. The following formula is used to compute the percent inhibition: […]
The time period with the greatest percent of inhibition is considered the peak time. A dose range determination is generally reserved for those compounds which inhibit [formula] writhing by greater than 65-70% at the screening dose. A dose range determination is run in the same manner as the time response except 10 animals per group are tested at the peak time of test drug activity. Fifty animals, four test drug groups, and a vehicle control are employed. Animals are dosed and tested in a randomized manner.

Structure (SMILES)	ED50 [mg/kg]
CC(=O)Oc1ccc2c(c1)C1CCN(C)C(C1)N2C (centres unmarked) [1,2,3,4,5,6-Hexahydro-1,3-dimethyl-2,6-methano-1,3-benzodiazocin-8-ol acetate, fumarate]	0.74
CN1CCC2CC1N(C)c1ccc(O)cc12.O=C(O)/C=C/C(=O)O (centres unmarked) [1,2,3,4,5,6-Hexahydro-1,3-dimethyl-2,6-methano-1,3-benzodiazocin-8-ol fumarate]	0.7
COc1ccc2c(c1)C1CCN(C)C(C1)N2C (centres unmarked) [1,2,3,4,5,6-Hexahydro-8-methoxy-1,3-dimethyl-2,6-methano 1,3-benzodiazocine]	10.2
CN1CCC2CC1N(C)c1c(Br)cc(O)cc12 (centres unmarked) [10-Bromo-1,2,3,4,5,6-hexahydro-1,3-dimethyl-2,6-methano-1,3-benzodiazocin-8-ol, hemi-fumarate]	1.9
CC(C)=CCN1CCC2(C)c3cc(O)ccc3CC1C2C (centres unmarked) [pentazocine, reference compound]	1.3
